Columns and labels:
[1] = system: HCV sub-genomic replicon of genotype 1a in replicon cell line W11.8; assay: microbe, parasite or virus in culture; assay type: cell-based, Hepatitis C virus; conditions: Hepatitis C virus, W11.8, 96 h, read-out: HCV-Replicon-ELISA-1a IC50
[2] = [3H]Thymidine incorporation assay (cytotoxicity, CC50); conditions: human

Compound | IC50 [1] | CC50 at 72 h [2]
CC(C)(C)C#Cc1cc(N(C(=O)c2ccccc2Cl)[C@H]2CC[C@H](O)CC2)c(C(=O)O)s1 [Compound 87, 3-[(2-Chloro-benzoyl)-(trans-4-hydroxy-cyclohexyl)-amino]-5-(3,3-dimethyl-but-1-ynyl)-thiophene-2-carboxylic acid] | 1 to 10 µM | 
CC(C)(C)C#Cc1cc(N(C(=O)c2ccc(F)cc2)[C@H]2CC[C@H](O)CC2)c(C(=O)O)s1 [Compound 92, 5-(3,3-Dimethyl-but-1-ynyl)-3-[(4-fluoro-benzoyl)-(trans-4-hydroxy-cyclohexyl)-amino]-thiophene-2-carboxylic acid] | 1 to 10 µM | 
Cc1ccc(C(=O)N(c2cc(C#CC(C)(C)C)sc2C(=O)O)[C@H]2CC[C@H](O)CC2)cc1 [Compound 86, 5-(3,3-Dimethyl-but-1-ynyl)-3-[(trans-4-hydroxy-cyclohexyl)-(4-methyl-benzoyl)-amino]-thiophene-2-carboxylic acid] | < 0.1 µM | 10 to 100 µM
Cn1cc(CN(c2cc(C#CC(C)(C)C)sc2C(=O)O)C(=O)[C@H]2CC[C@H](C)CC2)cn1 [Compound 67, 5-(3,3-Dimethylbut-1-ynyl)-3-((trans)-4-methyl-N-((1-methyl-1H-pyrazol-4-yl)methyl)cyclohexanecarboxamido)thiophene-2-carboxylic acid] | 0.1 to 1 µM | > 100 µM
CC(C)(C)C#Cc1cc(N(CCN2CCOCC2)C(=O)[C@H]2CC[C@H](C)CC2)c(C(=O)O)s1 [Compound 48, 5-(3,3-Dimethylbut-1-yn-1-yl)-3-(trans-4-methyl-N-(2-morpholinoethyl)cyclohexanecarboxamido)thiophene-2-carboxylic acid] | < 0.1 µM | 10 to 100 µM
CC(C)N(c1cc(C#Cc2ccccc2)sc1C(=O)O)C(=O)[C@H]1CC[C@H](C)CC1 [Compound 21, 3-[Isopropyl-(trans-4-methyl-cyclohexanecarbonyl)-amino]-5-phenylethynyl-thiophene-2-carboxylic acid] | 1 to 10 µM | 10 to 100 µM
CC(C)(C)C#Cc1cc(N(C(=O)c2ccc(C(F)(F)F)cc2)[C@H]2CC[C@H](O)CC2)c(C(=O)O)s1 [Compound 82, 5-(3,3-Dimethyl-but-1-ynyl)-3-[(trans-4-hydroxy-cyclohexyl)-(4-trifluoromethyl-benzoyl)-amino]thiophene-2-carboxylic acid] | 0.1 to 1 µM | 10 to 100 µM
CC(C)(C)C#Cc1cc(N(C(=O)c2ccc(Cl)c(F)c2)[C@H]2CC[C@H](O)CC2)c(C(=O)O)s1 [Compound 94, 3-[(4-Chloro-3-fluoro-benzoyl)-(trans-4-hydroxy-cyclohexyl)-amino]-5-(3,3-dimethyl-but-1-ynyl)-thiophene-2-carboxylic acid] | 0.1 to 1 µM | 
CC(C)(C)C#Cc1cc(N(CC(=O)O)C(=O)[C@H]2CC[C@H](C)CC2)c(C(=O)O)s1 [Compound 2, 3-[Carboxymethyl-(trans-4-methyl-cyclohexanecarbonyl)-amino]-5-(3,3-dimethyl-but-1-ynyl)-thiophene-2-carboxylic acid] | 0.1 to 1 µM | > 100 µM
CC(C)(C)C#Cc1cc(N(C(=O)c2ccc(Cl)cc2Cl)[C@H]2CC[C@H](O)CC2)c(C(=O)O)s1 [Compound 90, 3-[(2,4-Dichloro-benzoyl)-(trans-4-hydroxy-cyclohexyl)-amino]-5-(3,3-dimethyl-but-1-ynyl)-thiophene-2-carboxylic acid] | 0.1 to 1 µM | 10 to 100 µM
CC(C)(C)C#Cc1cc(N(C(=O)[C@H]2CC[C@H](C)CC2)[C@@H]2CCNC2)c(C(=O)O)s1 [Compound 58, 5-(3,3-Dimethylbut-1-yn-1-yl)-3-((trans)-4-methyl-N—((R)-pyrrolidin-3-yl)cyclohexanecarboxamido)thiophene-2-carboxylic acid] | < 0.1 µM | > 100 µM
Cc1nnc(CN(c2cc(C#CC(C)(C)C)sc2C(=O)O)C(=O)[C@H]2CC[C@H](C)CC2)o1 [Compound 24, 5-(3,3-Dimethyl-but-1-ynyl)-3-[(trans-4-methyl-cyclohexanecarbonyl)-(5-methyl-[1,3,4]oxadiazol-2-ylmethyl)-amino]-thiophene-2-carboxylic acid] |  | < 10 µM
CC(C)(C)C#Cc1cc(N(C(=O)[C@H]2CC[C@H](C)CC2)C2CCC(F)(F)CC2)c(C(=O)O)s1 [Compound 14, 3-[(4,4-Difluoro-cyclohexyl)-(trans-4-methyl-cyclohexanecarbonyl)-amino]-5-(3,3-dimethyl-but-1-ynyl)-thiophene-2-carboxylic acid] | < 0.1 µM | 10 to 100 µM
CC(C)(C)C#Cc1cc(N(C(=O)c2ccc(Cl)cc2)[C@H]2CC[C@H](O)CC2)c(C(=O)O)s1 [Compound 81, 3-[(4-Chloro-benzoyl)-(trans-4-hydroxy-cyclohexyl)-amino]-5-(3,3-dimethyl-but-1-ynyl)-thiophene-2-carboxylic acid] | 0.1 to 1 µM | 
CC(C)N(c1cc(C#CC2CCCCC2)sc1C(=O)O)C(=O)[C@H]1CC[C@H](C)CC1 [Compound 18, 5-Cyclohexylethynyl-3-[isopropyl-(trans-4-methyl-cyclohexanecarbonyl)-amino]-thiophene-2-carboxylic acid] | 1 to 10 µM | 10 to 100 µM
CC(C)N(c1cc(C#CC(C)(C)O)sc1C(=O)O)C(=O)[C@H]1CC[C@H](C)CC1 [Compound 19, 5-(3-Hydroxy-3-methyl-but-1-ynyl)-3-[isopropyl-(trans-4-methyl-cyclohexanecarbonyl)-amino]-thiophene-2-carboxylic acid] | 0.1 to 1 µM | > 100 µM
CC(C)(C)C#Cc1cc(N(C(=O)[C@H]2CC[C@H](C)CC2)[C@H]2CCNC2)c(C(=O)O)s1 [Compound 57, 5-(3,3-Dimethylbut-1-yn-1-yl)-3-((trans)-4-methyl-N-((S)-pyrrolidin-3-yl)cyclohexanecarboxamido)thiophene-2-carboxylic acid] | < 0.1 µM | > 100 µM
CC(CN1CCOCC1)N(c1cc(C#CC(C)(C)C)sc1C(=O)O)C(=O)[C@H]1CC[C@H](C)CC1 (relative stereo) [Compound 72, 5-(3,3-Dimethylbut-1-yn-1-yl)-3-(trans-4-methyl-N-(1-morpholinopropan-2-yl)cyclohexanecarboxamido)thiophene-2-carboxylic acid] | < 0.1 µM | 10 to 100 µM
CC(C)N(c1cc(C#CC2CC2)sc1C(=O)O)C(=O)[C@H]1CC[C@H](C)CC1 [Compound 20, 5-Cyclopropylethynyl-3-[isopropyl-(trans-4-methyl-cyclohexanecarbonyl)-amino]-thiophene-2-carboxylic acid] | 0.1 to 1 µM | 10 to 100 µM
Cn1ccc(CN(c2cc(C#CC(C)(C)C)sc2C(=O)O)C(=O)[C@H]2CC[C@H](C)CC2)n1 [Compound 71, 5-(3,3-Dimethylbut-1-ynyl)-3-((trans)-4-methyl-N-((1-methyl-1H-pyrazol-3-yl)methyl)cyclohexanecarboxamido)thiophene-2-carboxylic acid] | < 0.1 µM | 10 to 100 µM
Cc1ccc(C(=O)N(c2cc(C#CC(C)(C)C)sc2C(=O)O)[C@H]2CC[C@H](O)CC2)c(Cl)c1 [Compound 84, 3-[(2-Chloro-4-methyl-benzoyl)-(trans-4-hydroxy-cyclohexyl)-amino]-5-(3,3-dimethyl-but-1-ynyl)-thiophene-2-carboxylic acid] | < 0.1 µM | 
COC(C)(C)C#Cc1cc(N(C(=O)[C@H]2CC[C@H](C)CC2)C(C)C)c(C(=O)O)s1 [Compound 22, 3-[Isopropyl-(trans-4-methyl-cyclohexanecarbonyl)-amino]-5-(3-methoxy-3-methyl-but-1-ynyl)-thiophene-2-carboxylic acid] | 0.1 to 1 µM | 10 to 100 µM
Cc1ccc(C(=O)N(c2cc(C#CC(C)(C)C)sc2C(=O)O)[C@H]2CC[C@H](O)CC2)c(F)c1 [Compound 85, 5-(3,3-Dimethyl-but-1-ynyl)-3-[(2-fluoro-4-methyl-benzoyl)-(trans-4-hydroxy-cyclohexyl)-amino]thiophene-2-carboxylic acid] | < 0.1 µM | 10 to 100 µM
Cn1nccc1CN(c1cc(C#CC(C)(C)C)sc1C(=O)O)C(=O)[C@H]1CC[C@H](C)CC1 [Compound 77, 5-(3,3-Dimethylbut-1-ynyl)-3-((trans)-4-methyl-N-((1-methyl-1H-pyrazol-5-yl)methyl)cyclohexanecarboxamido)thiophene-2-carboxylic acid] | < 0.1 µM | > 100 µM
Cn1cncc1CN(c1cc(C#CC(C)(C)C)sc1C(=O)O)C(=O)[C@H]1CC[C@H](C)CC1 [Compound 66, 5-(3,3-Dimethylbut-1-ynyl)-3-((trans)-4-methyl-N-((1-methyl-1H-imidazol-5-yl)methyl)cyclohexanecarboxamido)thiophene-2-carboxylic acid] | < 0.1 µM | > 100 µM
Cc1ccccc1C(=O)N(c1cc(C#CC(C)(C)C)sc1C(=O)O)[C@H]1CC[C@H](O)CC1 [Compound 88, 5-(3,3-Dimethyl-but-1-ynyl)-3-[(trans-4-hydroxy-cyclohexyl)-(2-methyl-benzoyl)-amino]-thiophene-2-carboxylic acid] | 0.1 to 1 µM | 
CC(C)(C)C#Cc1cc(N(C(=O)[C@H]2CC[C@H](C)CC2)[C@H]2C[C@@H](CO)C2)c(C(=O)O)s1 [Compound 76, 5-(3,3-dimethylbut-1-yn-1-yl)-3-(trans-4-methyl-N-(cis-3-(hydroxymethyl)cyclobutyl)cyclohexanecarboxamido)thiophene-2-carboxylic acid] | < 0.1 µM | > 100 µM
Cc1ccc(C(=O)N(c2cc(C#CC(C)(C)C)sc2C(=O)O)[C@H]2CC[C@H](O)CC2)c(F)c1F [Compound 89, 3-[(2,3-Difluoro-4-methyl-benzoyl)-(trans-4-hydroxy-cyclohexyl)-amino]-5-(3,3-dimethyl-but-1-ynyl)-thiophene-2-carboxylic acid] | < 0.1 µM | 
